In US9833497B2, “Human originated EGF domain proteins and use of the same” (CHENGDU SOURCEBIO LIMITED-LIABILITY COMPANY, priority 2013, dated 2017):

Tests used:
Format in all cases: cell-based
E. coli DH5α = assay: Antibacterial activity: MIC and growth curve against E. coli DH5α in 96-well plate; conditions: minimal inhibitory concentration against E. coli DH5α; 96-well plate, 5×10^5 CFU/mL, 37° C., judged after 8 h
Method in brief: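 Log-phase bacteria (OD600 ~0.5) resuspended in LB at 5×10^5 CFU/mL, exposed to recombinant protein at 50, 25, 12.5 μg/mL final in triplicate, 37 °C shaking at 175 rpm. OD600 read every 30 min; MIC is lowest concentration showing no growth.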

E. coli BL21 = assay: MIC against Gram-negative bacteria: E. coli BL21; conditions: 5×10^5 CFU/mL
Method in brief: (§1)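 Antibacterial activity of purified human EGF domain proteins: two-fold concentration series, triplicate wells, LB broth, 5×10^5 CFU/mL bacteria, 37° C shaking incubation. The lowest concentration without growth defines the MIC.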

Pseudomonas aeruginosa = assay: MIC against Gram-negative bacteria: Pseudomonas aeruginosa; conditions: 5×10^5 CFU/mL; for MIC against P. aeruginosa: Pseudomonas aeruginosa
Method in brief: as §1

Klebsiella pneumonia = assay: MIC against Gram-negative bacteria: Klebsiella pneumonia; conditions: 5×10^5 CFU/mL; for MIC against K. pneumonia: Klebsiella pneumonia
Method in brief: as §1

Enterobacter cloacae = assay: MIC against Gram-negative bacteria: Enterobacter cloacae; conditions: 5×10^5 CFU/mL; for MIC against E. cloacae: Enterobacter cloacae
Method in brief: as §1

Aeromonas hydrophila = assay: MIC against Gram-negative bacteria: Aeromonas hydrophila; conditions: 5×10^5 CFU/mL; for MIC against A. hydrophila: Aeromonas hydrophila
Method in brief: as §1

Citrobacter diversus = assay: MIC against Gram-negative bacteria: Citrobacter diversus; conditions: 5×10^5 CFU/mL; for MIC against C. diversus: Citrobacter diversus
Method in brief: as §1

Moraxella catarrhalis = assay: MIC against Gram-negative bacteria: Moraxella catarrhalis; conditions: 5×10^5 CFU/mL; for MIC against M. catarrhalis: Moraxella catarrhalis
Method in brief: as §1

Proteus mirabilis = assay: MIC against Gram-negative bacteria: Proteus mirabilis; conditions: 5×10^5 CFU/mL; for MIC against P. mirabilis: Proteus mirabilis
Method in brief: as §1

Proteus vulgaris = assay: MIC against Gram-negative bacteria: Proteus vulgaris; conditions: 5×10^5 CFU/mL; for MIC against P. vulgaris: Proteus vulgaris
Method in brief: as §1

Serratia marcescens = assay: MIC against Gram-negative bacteria: Serratia marcescens; conditions: 5×10^5 CFU/mL; for MIC against S. marcescens: Serratia marcescens
Method in brief: as §1

Substance | MIC (E. coli DH5α) | MIC (μg/mL) E. coli BL21 (E. coli BL21; 10 h cultivation at 37° C.) | MIC (μg/mL) P. aeruginosa (Pseudomonas aeruginosa; 10 h cultivation at 37° C.) | MIC (μg/mL) K. pneumonia (Klebsiella pneumonia; 10 h cultivation at 37° C.) | MIC (μg/mL) E. cloacae (Enterobacter cloacae; 10 h cultivation at 37° C.) | MIC (μg/mL) A. hydrophila (Aeromonas hydrophila; 10 h cultivation at 37° C.) | MIC (μg/mL) C. diversus (Citrobacter diversus; 10 h cultivation at 37° C.) | MIC (μg/mL) M. catarrhalis (Moraxella catarrhalis; 10 h cultivation at 37° C.) | MIC (μg/mL) P. mirabilis (Proteus mirabilis; 10 h cultivation at 37° C.) | MIC (μg/mL) P. vulgaris (Proteus vulgaris; 10 h cultivation at 37° C.) | MIC (μg/mL) S. marcescens (Serratia marcescens; 10 h cultivation at 37° C.) | MIC against E. coli BL21 (E. coli BL21; 10 h cultivation at 37° C.) | MIC against P. aeruginosa (Pseudomonas aeruginosa; 10 h cultivation at 37° C.) | MIC against K. pneumonia (Klebsiella pneumonia; 10 h cultivation at 37° C.) | MIC against E. cloacae (Enterobacter cloacae; 10 h cultivation at 37° C.) | MIC against A. hydrophila (Aeromonas hydrophila; 10 h cultivation at 37° C.) | MIC against C. diversus (Citrobacter diversus; 10 h cultivation at 37° C.) | MIC against M. catarrhalis (Moraxella catarrhalis; 10 h cultivation at 37° C.) | MIC against P. mirabilis (Proteus mirabilis; 10 h cultivation at 37° C.) | MIC against P. vulgaris (Proteus vulgaris; 10 h cultivation at 37° C.) | further results
PRT772 (TIVSTESLETLAPGLCQEGQIWNGKQCVCPQGYVGYQCL; listed as Homo sapiens) | 12.5 µg/mL | 50 µg/mL | 12.5 µg/mL | 50 µg/mL | 12.5 µg/mL | 50 µg/mL | 12.5 µg/mL | 25 µg/mL | 50 µg/mL | 25 µg/mL | 12.5 µg/mL |  |  |  |  |  |  |  |  |  | 
PRT1467 (QPQDCPPSTCLNGGTCHLGTRHHLACLCPEGFTGLYCE; listed as Homo sapiens) | 25 µg/mL |  |  |  |  |  |  |  |  |  |  | 50 µg/mL | 25 µg/mL | 12.5 µg/mL | 50 µg/mL | 25 µg/mL | 12.5 µg/mL | 25 µg/mL | 50 µg/mL | 25 µg/mL | MIC against S. marcescens (Serratia marcescens; 10 h cultivation at 37° C.): 12.5 µg/mL
PRT848 (CQCNNRSASCDALTGACLNCQENSKGNHCEECKEGFYQSPDATKECLR; listed as Homo sapiens) | 25 µg/mL | 12.5 µg/mL | 25 µg/mL | 25 µg/mL | 50 µg/mL | 12.5 µg/mL | 50 µg/mL | 12.5 µg/mL | 50 µg/mL | 25 µg/mL | 12.5 µg/mL |  |  |  |  |  |  |  |  |  | 
PRT1344 (DIDECSPLPCLNNGVCKDLVGEFICECPSGYTGQRCE; listed as Homo sapiens) | 12.5 µg/mL |  |  |  |  |  |  |  |  |  |  | 50 µg/mL | 25 µg/mL | 12.5 µg/mL | 25 µg/mL | 50 µg/mL | 12.5 µg/mL | 50 µg/mL | 12.5 µg/mL | 50 µg/mL | MIC against S. marcescens (Serratia marcescens; 10 h cultivation at 37° C.): 25 µg/mL
PRT1226 (YTASCQDMSCSKQGECLETIGNYTCSCYPGFYGPECE; listed as Homo sapiens) | 25 µg/mL |  |  |  |  |  |  |  |  |  |  |  |  |  |  |  |  |  |  |  | MIC against E. coli BL21 (E. coli BL21; 96-well plate, 37° C., 10 h): 50 µg/mL; MIC against P. aeruginosa (Pseudomonas aeruginosa; 96-well plate, 37° C., 10 h): 25 µg/mL; MIC against K. pneumonia (Klebsiella pneumonia; 96-well plate, 37° C., 10 h): 12.5 µg/mL; MIC against E. cloacae (Enterobacter cloacae; 96-well plate, 37° C., 10 h): 25 µg/mL; MIC against A. hydrophila (Aeromonas hydrophila; 96-well plate, 37° C., 10 h): 25 µg/mL; MIC against C. diversus (Citrobacter diversus; 96-well plate, 37° C., 10 h): 50 µg/mL; MIC against M. catarrhalis (Moraxella catarrhalis; 96-well plate, 37° C., 10 h): 12.5 µg/mL; MIC against P. mirabilis (Proteus mirabilis; 96-well plate, 37° C., 10 h): 50 µg/mL; MIC against P. vulgaris (Proteus vulgaris; 96-well plate, 37° C., 10 h): 12.5 µg/mL; MIC against S. marcescens (Serratia marcescens; 96-well plate, 37° C., 10 h): 25 µg/mL
PRT625 (CNCSGRSEECTFDRELFRSTGHGGRCHHCRDHTAGPHCERCQENFYHWDPRMPCQP; listed as Homo sapiens) | 12.5 µg/mL |  |  |  |  |  |  |  |  |  |  |  |  |  |  |  |  |  |  |  | MIC E. coli BL21 (E. coli BL21; 96-well plate, 37° C., 10 h): 25 µg/mL; MIC P. aeruginosa (Pseudomonas aeruginosa; 96-well plate, 37° C., 10 h): 12.5 µg/mL; MIC K. pneumonia (Klebsiella pneumonia; 96-well plate, 37° C., 10 h): 25 µg/mL; MIC E. cloacae (Enterobacter cloacae; 96-well plate, 37° C., 10 h): 50 µg/mL; MIC A. hydrophila (Aeromonas hydrophila; 96-well plate, 37° C., 10 h): 25 µg/mL; MIC C. diversus (Citrobacter diversus; 96-well plate, 37° C., 10 h): 12.5 µg/mL; MIC M. catarrhalis (Moraxella catarrhalis; 96-well plate, 37° C., 10 h): 25 µg/mL; MIC P. mirabilis (Proteus mirabilis; 96-well plate, 37° C., 10 h): 50 µg/mL; MIC P. vulgaris (Proteus vulgaris; 96-well plate, 37° C., 10 h): 25 µg/mL; MIC S. marcescens (Serratia marcescens; 96-well plate, 37° C., 10 h): 12.5 µg/mL
